Laboratory results: US10493057B2, “Acetogenin molecules having antiplatelet and/or antithrombic activities, and methods and compositions thereof” (INSTITUTO TECNOLOGICO Y DE ESTUDIOS SUPERIORES DE MONTERREY, priority 2015, dated 2019)
Read-outs that look alike come from different tables or passages of the source.

Experiments:
[1] = tested on: platelets (human platelet-rich plasma); assay: Platelet aggregation assay (turbidimetric, platelet-rich plasma) induced by collagen, ADP or arachidonic acid; assay type: cell-based
Excerpt: Antiplatelet activity may be assessed using one or more in vitro (e.g., platelet aggregation) and/or in vivo (e.g., blood clotting time) assays. Antiplatelet activity may be assessed, for example, using a light transmittance aggregometry test based on the stimulation of platelet-platelet aggregation in platelet-rich plasma after stimulation with various agonists (e.g., ADP, α Arachidonic acid, collagen etc). This test has been the most widely used technique to monitor the effects of antiplatelet agents. Agonists and their concentration may be used to produce full aggregation. Under this condition, acetogenins may inhibit aggregation induced by any agonist; their half maximal inhibitory concentration (IC50) value may vary by the agonist used. Percent aggregation inhibition values may be calculated using the following equation: % Inhibition=(Maximal aggregation vehicle control−Maximal aggregation acetogenins)/Maximal aggregation vehicle control×100%. Under a dose-dependent antiplatelet activity, IC50 may represent the concentration of acetogenins required for 50% inhibition of stimulation of platelet aggregation. […]
To confirm the contribution of the isolated acetogenin compounds to antiplatelet activity, their individual activity was evaluated at different concentrations (0.15-15 mM). Aggregation was induced by different agonists that included collagen (5 μg mL−1), ADP (20 μM) and arachidonic acid (500 μM) in an approximation to explore the potential interference of acetogenins with the binding of a particular agonist to its cell surface receptor.
The platelet aggregation (induced by ADP, collagen and arachidonic acid) inhibitory activity of the purified molecules was evaluated was conducted in accordance with the Helsinki Declaration using human blood donated to the blood bank of Instituto Nacional de Cardiología Ignacio Chávez. Blood samples were taken from healthy volunteers who had not taken any medications for at least 2 weeks, or ingested any alcohol for at least 24 h prior to sample collection. Blood was collected by venipuncture into Vacutainer (BD Diagnostics, Plymouth, UK) tubes containing 3.8% sodium citrate as an anticoagulant (at a 9:1 ratio, v/v). Platelet-rich plasma (PRP) and platelet-poor plasma (PPP) were obtained as earlier reported by A. De la Peña, G. Baños, R. Izaguirre, J. J. Mandoki and J. M. Fernández, Comparative effect of synthetic aminoestrogens with estradiol on platelet aggregation, Steroids, 1993, 58(9), 407-409. The assays were carried out within 2 h after the blood had been drawn.
Evaluation of platelet aggregation was performed by turbidimetric measurements according to S. S. Falkenberg, I. Tarnow, A. Guzman, P. Molgaard and H. T. Simonsen, Mapuche herbal medicine inhibits blood platelet aggregation, Evid. Based Complement. Alternat. Med., 2012, 2012, 647620, with some modifications. PRP adjusted with PPP to a platelet count of 2.5×108 mL^−1 (215 μL) was pre-incubated at 37° C. for 10 min with the evaluated sample (10 μL) and at various concentrations.
Platelet aggregation was initiated by the addition of 25 μL of the platelet agonist. The final concentrations of agonists in the reaction mixture were 20 μM ADP, 500 μM arachidonic acid or 5 μg mL^−1 collagen, all obtained from Chrono-PAR. Corporation (Havertown, Pa., USA). Aggregation response was recorded for 10 min using a Chrono-log Model 700 Whole Blood/Optical Lumi-Aggregometer (Chrono-Log, Havertown, Pa., USA). Maximal aggregation (MA) observed for samples containing avocado extracts, at different degrees of purification, was compared to those of vehicle controls (DMSO 2 M) evaluated under the same experimental conditions. Percent aggregation inhibitions, for all samples, were calculated using the following equation: % Inhibition=(MA vehicle control−MA extract)/MA vehicle control×100%. […]

Male adult CD1 mice [2] = assay: Experimental thrombosis model test (surgical stasis of femoral vasculature); assay type: in vivo; settings: 25 mg kg−1 single i.p.; thrombosis induced after 24 h
Excerpt: Antithrombic activity may be assessed using one or more in vivo (e.g., experimental thrombosis model) assays. For example, after thrombus induction, femoral segments may be removed, fixed, and stained. These segments may be then scored by a pathologist in a double blind manner. Quantitative measurement may be obtained by computerized plannimetry, reaching a quantitative morphological description of structures at the two-dimensional level. Image analysis may be performed using ImageJ software. Minimal occlusion (0.2%) may be observed in controls arteries and test specimens may display thrombus occlusion 40% of the vascular light.
All in vivo experiments were conducted in accordance with the Mexican National Protection Laws on Animal Protection and the General Health Law Related to Health Research (NOM-062-Z00-1999). All procedures were approved by an ethics committee. Male adult CD1 mice weighing 25-35 g were used (obtained from the Animal Care Unit from Facultad de Medicina, UNAM). […]
Additionally, an experimental thrombosis model test was performed by subjecting mice to an acute ischemic challenge. […] 4 μm thick sections were stained with Masson's trichrome and hematoxylin-eosin, and scored by a pathologist for the percentage of thrombus induction based on the occlusion of vascular light.

Male adult CD1 mice [3] = assay: Blood clotting time test in mice; assay type: in vivo
Description: All in vivo experiments were conducted in accordance with the Mexican National Protection Laws on Animal Protection and the General Health Law Related to Health Research (NOM-062-Z00-1999). All procedures were approved by an ethics committee. Male adult CD1 mice weighing 25-35 g were used (obtained from the Animal Care Unit from Facultad de Medicina, UNAM).
Animals were distributed among groups according to a balanced design based on body weight (3 animals per group in each experiment). Room temperature was kept constant (21-24° C.), and with light-dark cycles of 12 h. Food and water were given ad libitum. Persenone-A was dissolved in DMSO (vehicle) and administered intraperitoneally (i.p.). Control animals only received the vehicle (1.66 mL kg−1).
In a blood clotting time test groups of animals received a single i.p. administration of Persenone A (1, 10 or 100 mg kg^−1 of body weight, respectively) or vehicle. Blood clotting time was measured 24 h after administration, as described in R. Jaimez, A. Cooney, K. Jackson, A. E. Lemus, C. […] Time was counted from the instant that blood first made contact with the glass capillary tube and until the blood ceased to flow. […]
The data shown in FIG. 4 is representative of at least three independent experiments. Results were expressed as means±SEM. […]

[4] = Homo sapiens, Platelet, ADP 20 μM, read-out: Half-maximal inhibition concentration (IC50), ADP-induced platelet aggregation
[5] = Homo sapiens, Platelet, Arachidonic acid 500 μM, read-out: Half-maximal inhibition concentration (IC50), arachidonic acid-induced platelet aggregation
[6] = Homo sapiens, Platelet, Collagen 5 μg mL−1, read-out: Half-maximal inhibition concentration (IC50), collagen-induced platelet aggregation

In the case of `C=C/C=C/CCCCCCCCCCCC(=O)CC(O)COC(C)=O` (stereo not shown) [Acetogenin 2, Persediene], the IC50 [1, 4] is reported as greater than 15 mM, the IC50 [1, 5] is reported as greater than 15 mM and the IC50 [1, 6] is reported as 12 ± 1.24 mM. The “inhibition of collagen-induced aggregation (in words)” value ([1]; collagen-induced) was “inhibited collagen-induced aggregation”.

`CC/C=C/CCCCCCCCC/C=C/C(=O)CC(O)COC(C)=O` (stereo not shown) [Acetogenin 3, Persenone-C] showed an IC50 ([1]; Collagen 5 μg mL−1, read-out: Half-maximal inhibition concentration (IC50), collagen-induced platelet aggregation) of 5.23 ± 1.19 mM, an IC50 [1, 4] of 5.22 ± 1.19 mM and an IC50 [1, 5] of 7.4 ± 1.2 mM. The IC50 [1, 6] was 3.42 ± 1.56 mM.

In the case of `CCCCC/C=C\C/C=C\CCCCCCCC(=O)CC(O)COC(C)=O` (stereo not shown) [Acetogenin 6, Persin], the IC50 [1, 4] is reported as greater than 15 mM, the IC50 [1, 5] is reported as greater than 15 mM and the IC50 [1, 6] is reported as greater than 15 mM. For the same compound, the “inhibition of platelet aggregation (in words)” value ([1]; any of the evaluated concentrations (0.15-15 mM)) was “did not inhibit platelet aggregation”.

With `C=CCCCCCCCCCCC[C@H](O)C[C@H](O)COC(C)=O` [Acetogenin 1, (2S,4S)-1-acetoxy-2,4-dihydroxy-n-heptadeca-16-ene] the IC50 [1, 4] was 7.29 ± 1.21 mM, the IC50 [1, 5] was 13.4 ± 1.26 mM and the IC50 [1, 6] was 8.18 mM. The “inhibitory concentration, fold higher than Persenone-C” value ([1]; all three agonists (collagen, ADP, arachidonic acid)) was greater than 1.5 fold.

In the case of `CCCCC/C=C\C/C=C\CCCCC/C=C/C(=O)CC(O)COC(C)=O` (stereo not shown) [Acetogenin 4, Persenone-A], the “decrease in luminal occlusion compared to the stasis group” value (Male adult CD1 mice [2]) is reported as 71%, the “increase in blood clotting time” value (Male adult CD1 mice [3]; 100 mg kg−1 single i.p., measured 24 h after administration, relative to vehicle) is reported as 2 fold and the “EC50 of blood clotting time” value (Male adult CD1 mice [3]; single i.p., 24 h after administration) is reported as 24.8±1.7 mg kg^−1 of body weight. For the same compound, the IC50 [1, 4] was 13.5 ± 1.41 mM, the IC50 [1, 5] was greater than 15 mM and the IC50 [1, 6] was 8.73 ± 1.25 mM. For the same compound, the inhibition at 15000 µM ([1]; Homo sapiens, Platelet, 15 mM, arachidonic acid, read-out: inhibition of arachidonic acid-induced platelet aggregation at the highest concentration) was less than 50%.

With `CC(=O)Oc1ccccc1C(=O)O` [Aspirin, acetylysalicylic acid, reference compound] the IC50 [1, 4] was 3.65 ± 0.07 mM, the IC50 [1, 5] was 0.07 ± 0.01 mM and the IC50 [1, 6] was 0.38 ± 0.07 mM. The IC50 ([1]; Homo sapiens, Platelet, arachidonic acid-induced, read-out: IC50, arachidonic acid-induced platelet aggregation (as printed in text)) was 0.07 ± 0.01 mM and the “IC50 for arachidonic acid-induced aggregation, fold lower than for ADP-induced aggregation” value ([1]; arachidonic acid vs ADP) was 50 fold.
